In patent US8748598B2, “Analogs of 3-O-acetyl-11-keto-beta-boswellic acid” (Laila Nutraceuticals, priority 2004, dated 2014):
Converted amounts (≈) assume the structure as drawn. Read-outs that look alike come from different tables or passages of the source.

What was measured:
MDA-MB-231 = assay: MTT cell proliferation assay, MDA-MB-231; format: cell-based, human; details: for inhibition at 10 µg/mL / IC50: Homo sapiens, MDA-MB-231
Description: (§1) MTT [3-(4,5-dimethylthiazol-2-yl)-2,5-diphenyltetrazolium bromide] incorporation based cell proliferation assay was performed as described previously (Reference). The cytotoxic efficacy of some analogs was evaluated in different cell lines by MTT cell proliferation assay kit (Roche Applied Sciences, Germany). The assay was carried out according to the instruction provided by the vendor. Briefly, in brief, equal numbers of cells was plated in 96-well flat-bottomed plates in 100 μl of medium and were exposed to different analogs selected from 1 to 63 at various concentrations up to 10 μg/ml for a period of three days. Vehicle control culture wells received only a maximum of 0.5% DMSO. Thereafter, 0.5 mg/ml of MTT reagent was added to each well and the microplate was incubated further for 4 h at 37° C. in presence of 5% CO2. Finally, the cells were solubilized by adding solubilizing solution and allowed to incubate at 37° C. overnight. After complete solubilization of the formazan crystals the absorbance was read at 540 nm in a microplate reader (BioRad, USA). The results (mean OD±SD) obtained from quadruplicate wells were used in calculation to determine the inhibition of cell proliferation (50% of inhibitory concentration, IC50) of the test compounds.
(§2) The cytotoxic properties of some analogs were evaluated by MTT incorporation assay. The methodology of the assay procedure was the same as mentioned in example 41.

MCF-7 = assay: MTT cell proliferation assay, MCF-7; format: cell-based, human; details: for inhibition at 10 µg/mL / IC50: Homo sapiens, MCF7
Description: as §1, §2

potato 5-lipoxygenase = assay: 5-Lipoxygenase enzyme inhibitory activity; format: biochemical
Description: 5-Lipoxygenase enzyme inhibitory activity was measured using the method of Schewe et al. (Adv Enzymol, Vol 58, 191-272, 1986), modified by Reddanna et. al., (Methods of Enzymology, Vol 187, 268-277, 1990). The assay mixture contained 80 μM linoleic acid and sufficient amount of potato 5-lipoxygenase in 50 mM phosphate buffer (pH 6.3). The reaction was initiated by the addition of enzyme buffer mix to linoleic acid and the enzyme activity was monitored as the increase in absorbance at 234 nm. The reaction was monitored for 120 sec and the inhibitory potential of the test substances (29, 31, 33, 34, 35, 36, 39, 40, 43, 44, 46, 47, 48, 49, 50, 54, 57, 59, 62 & 63) was measured by incubating various concentrations of test substances two minutes before the addition of linoleic acid. All assays were performed three times. Percentage inhibition was calculated by comparing the slope of the curve obtained for test substances with that of the control.

A549 = assay: MTT cell proliferation assay, A549; format: cell-based, human; details: Homo sapiens, A549; Table 2; 10 ug/ml
Description: as §1

[1] = Table 2, 10 ug/ml, read-out: Inhibition of cell proliferation MDA-MB-231, % at 10 ug/ml
[2] = Table 4, 10 μg/ml, read-out: Percentage Inhibition of cell proliferation MDA-MB-231
[3] = Table 2, 10 ug/ml, read-out: Inhibition of cell proliferation MCF-7, % at 10 ug/ml
[4] = Table 4, 10 μg/ml, read-out: Percentage Inhibition of cell proliferation MCF-7

CCCCNC(=O)[C@]1(C)C2CC[C@]3(C)C(C(=O)C=C4C5[C@@H](C)[C@H](C)CC[C@]5(C)CC[C@]43C)[C@@]2(C)CC[C@H]1OC(C)=O (stereo partly shown) [Analog 29]
Inhibition of cell proliferation MDA-MB-231, % at 10 ug/ml (MDA-MB-231; Table 2, 10 ug/ml): 36% at 10 | Percentage Inhibition of cell proliferation MDA-MB-231 (MDA-MB-231; Table 4, 10 μg/ml): 36% at 10 μg/ml | Inhibition of cell proliferation MCF-7, % at 10 ug/ml (MCF-7; Table 2, 10 ug/ml): 38.3% at | Percentage Inhibition of cell proliferation MCF-7 (MCF-7; Table 4, 10 μg/ml): 38.3 at 10 μg/ml % | % inhibition at 10 μg/ml (potato 5-lipoxygenase): 33.29%

CC(=O)O[C@@H]1CC[C@@]2(C)C(CC[C@]3(C)C2C(=O)C=C2C4[C@@H](C)[C@H](C)CC[C@]4(C)CC[C@]23C)[C@@]1(C)C(=O)NCCN(CCO)CCO (stereo partly shown) [Analog 49]
Percentage Inhibition of cell proliferation MDA-MB-231 (MDA-MB-231; Table 4, 10 μg/ml): 21.4 at 10 μg/ml % | Percentage Inhibition of cell proliferation MCF-7 (MCF-7; Table 4, 10 μg/ml): 40.9% at 10 ug/ml | % inhibition at 10 μg/ml (potato 5-lipoxygenase): 31.55% | % inhibition at 25 μg/ml (potato 5-lipoxygenase): 47.02%

CC(=O)O[C@@H]1CC[C@@]2(C)C(CC[C@]3(C)C2C(=O)C=C2C4[C@@H](C)[C@H](C)CC[C@]4(C)CC[C@]23C)[C@@]1(C)C(=O)NC(C)C (stereo partly shown) [Analog 30]
inhibition at 10 µg/mL (MDA-MB-231; [1]): 35% | inhibition at 10 µg/mL (MDA-MB-231; [2]): 35% | inhibition at 10 µg/mL (MCF-7; [3]): 46% | inhibition at 10 µg/mL (MCF-7; [4]): 46% | inhibition at 10 µg/mL (A549): 18%

CC(=O)O[C@@H]1CC[C@@]2(C)C(CC[C@]3(C)C2C(=O)C=C2C4[C@@H](C)[C@H](C)CC[C@]4(C)CC[C@]23C)[C@@]1(C)C(=O)N(C)CCO (stereo partly shown) [Analog 45]
IC50 (MDA-MB-231; Table 4): 12 µg/mL (≈ 21 µM) | IC50 (MCF-7; Table 4): 11.9 µg/mL (≈ 20.8 µM)

CC(=O)O[C@@H]1CC[C@@]2(C)C(CC[C@]3(C)C2C(=O)C=C2C4[C@@H](C)[C@H](C)CC[C@]4(C)CC[C@]23C)[C@@]1(C)C(=O)Nc1ccc(O)cc1 (stereo partly shown) [Analog 46]
inhibition at 10 µg/mL (MCF-7; [4]): 39% | % inhibition at 10 μg/ml (potato 5-lipoxygenase): 19.01% | % inhibition at 25 μg/ml (potato 5-lipoxygenase): 30.56%

CC(=O)O[C@@H]1CC[C@@]2(C)C(CC[C@]3(C)C2C(=O)C=C2C4[C@@H](C)[C@H](C)CC[C@]4(C)CC[C@]23C)[C@@]1(C)C(=O)n1ccnc1 (stereo partly shown) [Analog 40]
inhibition at 10 µg/mL (MDA-MB-231; [2]): 31% | inhibition at 10 µg/mL (MCF-7; [4]): 2.7% | % inhibition at 10 μg/ml (potato 5-lipoxygenase): 18.40% | % inhibition at 25 μg/ml (potato 5-lipoxygenase): 40.47%

CC(=O)O[C@@H]1CC[C@@]2(C)C(CC[C@]3(C)C2C(=O)C=C2C4[C@@H](C)[C@H](C)CC[C@]4(C)CC[C@]23C)[C@@]1(C)C(=O)N1CCN(CCO)CC1 (stereo partly shown) [Analog 39]
% inhibition at 10 μg/ml (potato 5-lipoxygenase): 32.11% | % inhibition at 25 μg/ml (potato 5-lipoxygenase): 48.69%

CC(=O)OC1CC[C@@]2(C)C(CC[C@]3(C)C2C(=O)C=C2C4[C@@H](C)[C@H](C)CC[C@]4(C)CC[C@]23C)[C@@]1(C)C(=O)OCCN(C)C (stereo partly shown) [Analog 18]
Percentage Inhibition of cell proliferation MCF-7 (MCF-7; Table 4, 10 μg/ml): 5.97 at 10 μg/ml %

CC(=O)O[C@@H]1CC[C@@]2(C)C(CC[C@]3(C)C2C(=O)C=C2C4[C@@H](C)[C@H](C)CC[C@]4(C)CC[C@]23C)[C@@]1(C)C(=O)Nc1ccccc1Br (stereo partly shown) [Analog 44]
IC50 (MDA-MB-231; Table 4): 28.6 µg/mL (≈ 43 µM) | IC50 (MCF-7; Table 4): 24.1 µg/mL (≈ 36.1 µM) | % inhibition at 10 μg/ml (potato 5-lipoxygenase): 19.88% | % inhibition at 25 μg/ml (potato 5-lipoxygenase): 30.02%

CC(=O)O[C@@H]1CC[C@@]2(C)C(CC[C@]3(C)C2CC=C2C4[C@@H](C)[C@H](C)CC[C@]4(C)CC[C@]23C)[C@@]1(C)C(=O)N1CCNCC1 (stereo partly shown) [Analog 54]
% inhibition at 10 μg/ml (potato 5-lipoxygenase): 35.69% | % inhibition at 25 μg/ml (potato 5-lipoxygenase): 64.24%

COC(=O)[C@]1(C)C2CC[C@]3(C)C(C(=O)C=C4C5[C@@H](C)[C@H](C)CC[C@]5(C)CC[C@]43C)[C@@]2(C)CC[C@H]1S (stereo partly shown) [Analog 15]
inhibition at 10 µg/mL (MDA-MB-231; [2]): 37.5% | inhibition at 10 µg/mL (MCF-7; [4]): 21.6%

CC(=O)O[C@@H]1CC[C@]2(C)C3=C(Cl)C=C4C5[C@@H](C)[C@H](C)CC[C@]5(C)CC[C@@]4(C)[C@]3(C)CCC2[C@@]1(C)C(=O)NCCN (stereo partly shown) [Analog 61]
IC50 (MDA-MB-231; Table 4): 8.55 µg/mL (≈ 14.9 µM) | inhibition at 10 µg/mL (MCF-7; [4]): 41%

COC(=O)CNC(=O)[C@]1(C)C2CC[C@]3(C)C(C(=O)C=C4C5[C@@H](C)[C@H](C)CC[C@]5(C)CC[C@]43C)[C@@]2(C)CC[C@H]1OC(C)=O (stereo partly shown) [Analog 32]
inhibition at 10 µg/mL (MDA-MB-231; [1]): 41% | inhibition at 10 µg/mL (MDA-MB-231; [2]): 41% | inhibition at 10 µg/mL (MCF-7; [3]): 14% | inhibition at 10 µg/mL (MCF-7; [4]): 14% | inhibition at 10 µg/mL (A549): 10%

CNC(=O)[C@]1(C)C2CC[C@]3(C)C(C(=O)C=C4C5[C@@H](C)[C@H](C)CC[C@]5(C)CC[C@]43C)[C@@]2(C)CC[C@H]1OC(C)=O (stereo partly shown) [Analog 43]
inhibition at 10 µg/mL (MDA-MB-231; [2]): 47.8% | inhibition at 10 µg/mL (MCF-7; [4]): 12.6% | % inhibition at 10 μg/ml (potato 5-lipoxygenase): 14.57% | % inhibition at 25 μg/ml (potato 5-lipoxygenase): 30.90%

C[C@@H]1CC[C@]2(C)CC[C@]3(C)C(=CC(=O)C4[C@@]5(C)CC[C@@H](O)[C@](C)(C(=O)N6CCN(CCO)CC6)C5CC[C@]43C)C2[C@H]1C (stereo partly shown) [Analog 38]
inhibition at 10 µg/mL (MDA-MB-231; [2]): 20% | inhibition at 10 µg/mL (MCF-7; [4]): 2.73%

CC1CCC2(C)CCC3(C)C(=CC(=O)C4C5(C)CCC(OC(=O)CCC(=O)O)C(C)(C(=O)O)C5CCC43C)C2C1C (stereo not shown) [Analog 4]
Percentage Inhibition of cell proliferation MDA-MB-231 (MDA-MB-231; Table 4, 10 μg/ml): 40.7% at 10 μg/ml | Percentage Inhibition of cell proliferation MCF-7 (MCF-7; Table 4, 10 μg/ml): 26.6% at 10 μg/ml

CC(=O)O[C@@H]1CC[C@@]2(C)C(CC[C@]3(C)C2CC=C2C4[C@@H](C)[C@H](C)CC[C@]4(C)CC[C@]23C)[C@@]1(C)C(=O)NCCN (stereo partly shown) [Analog 51]
IC50 values MDA-MB-231 (MDA-MB-231; Table 4): IC50 at 10.5 μg/ml | IC50 values MCF-7 (MCF-7; Table 4): IC50 at 9.27 μg/ml

CC(=O)O[C@@H]1CC[C@]2(C)C3=C(Cl)C=C4C5[C@@H](C)[C@H](C)CC[C@]5(C)CC[C@@]4(C)[C@]3(C)CCC2[C@@]1(C)C(=O)N1CCNCC1 (stereo partly shown) [Analog 63]
% inhibition at 10 μg/ml (potato 5-lipoxygenase): 36.20% | % inhibition at 25 μg/ml (potato 5-lipoxygenase): 57.86%

CC(=O)O[C@@H]1CC[C@@]2(C)C(CC[C@]3(C)C2C(=O)C=C2C4[C@@H](C)[C@H](C)CC[C@]4(C)CC[C@]23C)[C@@]1(C)C(=O)Nc1ccccc1 (stereo partly shown) [Analog 42]
inhibition at 10 µg/mL (MDA-MB-231; [2]): 6% | inhibition at 10 µg/mL (MCF-7; [4]): 2.33%

C[C@@H]1CC[C@]2(C)CC[C@]3(C)C(=CC(Cl)=C4[C@@]5(C)CC[C@@H](O)[C@](C)(C(=O)O)C5CC[C@]43C)C2[C@H]1C (stereo partly shown) [Analog 59]
% inhibition at 10 μg/ml (potato 5-lipoxygenase): 21.46% | % inhibition at 25 μg/ml (potato 5-lipoxygenase): 39.24%

COC(=O)CCC(NC(=O)[C@]1(C)C2CC[C@]3(C)C(C(=O)C=C4C5[C@@H](C)[C@H](C)CC[C@]5(C)CC[C@]43C)[C@@]2(C)CC[C@H]1OC(C)=O)C(=O)OC (stereo partly shown) [Analog 56]
inhibition at 10 µg/mL (MDA-MB-231; [2]): 47% | inhibition at 10 µg/mL (MCF-7; [4]): 20%

CC(=O)O[C@@H]1CC[C@@]2(C)C(CC[C@]3(C)C2C(=O)C=C2C4[C@@H](C)[C@H](C)CC[C@]4(C)CC[C@]23C)[C@@]1(C)C(=O)NNc1ccccc1 (stereo partly shown) [Analog 47]
inhibition at 10 µg/mL (MDA-MB-231; [2]): 39% | inhibition at 10 µg/mL (MCF-7; [4]): 10% | % inhibition at 10 μg/ml (potato 5-lipoxygenase): 35.94% | % inhibition at 25 μg/ml (potato 5-lipoxygenase): 54.10%

CC(=O)O[C@@H]1CC[C@@]2(C)C(CC[C@]3(C)C2C(=O)C=C2C4[C@@H](C)[C@H](C)CC[C@]4(C)CC[C@]23C)[C@@]1(C)C(=O)NC1Cc2ccccc2C1 (stereo partly shown) [Analog 41]
inhibition at 10 µg/mL (MDA-MB-231; [2]): 23% | inhibition at 10 µg/mL (MCF-7; [4]): 3.74%

CC(=O)O[C@@H]1CC[C@]2(C)C3=C(Cl)C=C4C5[C@@H](C)[C@H](C)CC[C@]5(C)CC[C@@]4(C)[C@]3(C)CCC2[C@@]1(C)C(=O)NN (stereo partly shown) [Analog 62]
% inhibition at 10 μg/ml (potato 5-lipoxygenase): 36.26%

CC(=O)O[C@@H]1CC[C@@]2(C)C(CC[C@]3(C)C2C(=O)C=C2C4[C@@H](C)[C@H](C)CC[C@]4(C)CC[C@]23C)[C@@]1(C)C(=O)N1CCOCC1 (stereo partly shown) [Analog 37]
inhibition at 10 µg/mL (MDA-MB-231; [2]): 23%
